As a reminder, the ED50 is the midpoint of the dose-response relation. Usually LD50 stands for the dose at which mortality reaches 50%. Lower therefore signals a more toxic substance.

Read-outs that look alike come from different tables or passages of the source.

From patent US4665083A, “Iminothiazolidine derivatives” (priority 1984, dated 1987) come the findings set out here.

Data set [1] relates to Tetrabenazine ptosis. Kind of data set: animal or person. Format: in vivo. The conditions noted are these: for Therapeutical index (tetrabenazine ptosis antagonism): LD50 and ED50 tetrabenazine ptosis, mice; for ED50: Mus musculus, po, read-out: Tetrabenazine ptosis antagonism ED50. Here is the method: (2) Tetrabenazine ptosis antagonism on mice
The tetrabenazine ptosis antagonism of the compounds are tested on groups consisting of 10 mice each. […] 30 minutes after the introduction of the active agent or the vehicle, 50 mg/kg of tetrabenazine (3-isobutyl-9,10-[…]-1,2,3,4,6,7-hexahydrobenzo[a]quinolizine-2-one) are administered, intraperitoneally, and the animals with ptosis are counted 30, 60, 90 and 120 minutes after the administration of the tetrabenazine.
Evaluation: the average ptosis value is calculated in each group, and the deviation from the average obtained for the control group (inhibition) is given in percentage. From the data obtained ED50 values are calculated.

The subject of data set [2] is maximum electroshock. Kind of data set: animal or person. Format: in vivo. The conditions noted are these: for Therapeutical index (inhibition of maximum electroshock): LD50 and ED50 electroshock, mice; for ED50: Mus musculus, po, read-out: Inhibition of maximum electroshock ED50. Here is the method:
(7) Maximum inhibition of electroshock
The examination is carried out on mice weighing 20 to 25 g according to Swinyard. Electroshocks having the parameters of 50 Hz, 45 mA and 0.4 sec are employed by means of corneal electrodes. The complete inhibition of the tonic spasm of the lower limb extensor is taken as the criterium of the anticonvulsive action.

The test system of data set [3] is pentatetrazole spasm. Kind of data set: animal or person. Format: in vivo. Particulars: for Therapeutical index (inhibition of pentatetrazole spasm): LD50 and ED50 pentatetrazole spasm, mice; for ED50: Mus musculus, po, read-out: Inhibition of pentatetrazole spasm ED50. Here is the method:
(6) Inhibition of pentatetrazole spasm
The test is performed on mice according to a modified method of Banziger and Hane.

Data set [4] in a line: in vivo. The conditions noted are these: mouse, mice, 7 days observation, Litchfield-Wilcoxon. Here is the method:
(1) Acute toxicity on mice
The acute toxicity is determined on mice of both sex (CFLP breed, body weight 18 to 22 g). For each dosis 6 animals are employed. The compounds tested are administered orally in a volume of 20 ml/kg body weight. After the administration the animals are observed for 7 days. During this period the animals are fed with standard mouse feed and water ad libitum. The toxicity values are determined according to Litchfield-Wilcoxon's method.

Data set [5] deals with Reserpine ptosis. Kind of data set: animal or person. Format: in vivo. Particulars: for Therapeutical index (reserpine ptosis antagonism): LD50 and ED50 reserpine ptosis, mice; for ED50: Mus musculus, sc, 1 h, read-out: Reserpine ptosis antagonism ED50. The method, then:
(3) Reserpine ptosis antagonism on mice
Each group consisting of 10 mice are treated with 6 mg/kg of reserpine, subcutaneously. […] The animals with ptosis are counted 60 and 120 minutes after the administration of the compounds to be tested. Evaluation is carried out as given under point (2) above.

Data set [6] has as its system nicotine lethality. Kind of data set: Inhibition of nicotine spasm / nicotine lethality. Particulars: for Therapeutical index (inhibition of nicotine lethality): LD50 and ED50 nicotine lethality; for ED50: Mus musculus, read-out: Inhibition of nicotine lethality ED50. Format: in vivo, mice. Here is the method:
(5) Inhibition of nicotine spasm
The test is carried out on mice according to Stone.

Data set [7] relates to yohimbine toxicity. Kind of data set: animal or person. The class given is in vivo. The conditions noted are these: for Therapeutical index (potentiation of yohimbine toxicity): LD50 and ED50 yohimbine toxicity, mice; for ED50: Mus musculus, ip, read-out: Potentiation of yohimbine toxicity ED50. The method, then: (4) Yohimbine toxicity test on mice.
The examination is performed according to Quinton's method. Each group of animals consisting of 10 mice are treated with the compounds to be tested and the vehicle without active agent, respectively. After one hour a sublethal dosage of yohimbine in a volume of 20 ml/kg body weight is administered to the test groups, intraperitoneally. The number of the dead animals is recorded 1 and 24 hours after the administration of yohimbine.

Data set [8] deals with acetic acid writhing. Kind of data set: animal or person. Format: in vivo. Particulars: for Therapeutical index (analgesic effect, writhing test): LD50 and ED50 writhing test, mice; for ED50: Mus musculus, ip, read-out: Analgesic effect (writhing test) ED50. Here is the method:
(9) Analgesic effect on mice (writhing test)
The test is carried out on mice according to the modified method of Newbould. 0.75 percent acetic acid is administered to the animals in a volume of 20 ml/kg, intraperitoneally, and the characteristic "writhing reactions" are counted for a period of 5 minutes, starting from the fifth minute after challenge. […] The inhibition relative to the control group is evaluated in percentage.

Data set [9] relates to intestinal peristalsis. Kind of data set: animal or person. The class given is in vivo. Here is the method:
(8) Antiperistaltic effect on mice
The antiperistaltic effect of the compounds is examined on mice weighing 20 to 25 g according to the method of Stickney and co-workers. Each dosis of the compound to be tested is administered, orally, 60 minutes prior to the administration of a 10 percent carbon suspension. […] 20 minutes after the administration of the carbon suspension, the animals are sacrificed, and the length of the entire small intestine as well as that of the small intestine filled with carbon are determined. The inhibition in relation to the control is calculated in percentage. […] From the values thus-transformed ED50 values are calculated.

For data set [10], the system named is narcosis. Kind of data set: Potentiation of narcosis. The conditions noted are these: for Therapeutical index (potentiation of narcosis): LD50 and ED50 narcosis; for ED50: read-out: Potentiation of narcosis ED50.
The mark [11] stands for this setting: mice, oral, 1 hour before 1.4 mg/kg i.v. nicotine.

For the compound `Cl.Cl.N=C1SCCN1c1ccc(Cl)cc1N` [Compound 1, 3-(2-amino-4-chlorophenyl)-2-iminothiazolidine dihydrochloride], the “Therapeutical index (tetrabenazine ptosis antagonism)” value in data set [1] is 39. Besides, the ED50 in [1] came to 18 mg/kg; in data set [2], 70 mg/kg; in data set [3], 22 mg/kg; in data set [5], 50 mg/kg; in data set [6] (po), 25 mg/kg. Further, in [2], the “Therapeutical index (inhibition of maximum electroshock)” value was determined as 10. Besides, the “Therapeutical index (inhibition of pentatetrazole spasm)” value in [3] is given as 31.8. Moreover, in data set [4] (oral), the LD50 at 168 h is 700 mg/kg. For the same compound, the “Therapeutical index (reserpine ptosis antagonism)” value in data set [5] is 14. Moreover, the “Therapeutical index (inhibition of nicotine lethality)” value in data set [6] (mice) turned out to be 5.6.

Regarding `CC1CSC(=N)N1c1ccc(Cl)cc1N.Cl.Cl` (centres unmarked) [Compound 3, 3-(2-amino-4-chlorophenyl)-2-imino-4-methylthiazolidine dihydrochloride], in [1], the “Therapeutical index (tetrabenazine ptosis antagonism)” value is 67 and the ED50 worked out at 3 mg/kg. Moreover, in data set [2], the “Therapeutical index (inhibition of maximum electroshock)” value stood at 14.2 and the ED50 was determined as 14 mg/kg. In data set [3], the “Therapeutical index (inhibition of pentatetrazole spasm)” value is 25.6 and the ED50 was 7.8 mg/kg. In data set [4] (po), the LD50 at 168 h was 200 mg/kg. For the same compound, in data set [5], the “Therapeutical index (reserpine ptosis antagonism)” value is 67 and the ED50 came out at 3 mg/kg. Also, the “Therapeutical index (inhibition of nicotine lethality)” value in data set [6] (mice) worked out at 31.3. The ED50 in data set [6] (setting [11]) amounted to 6.4 mg/kg.

Turning to `CCS(=O)(=O)O.CCS(=O)(=O)O.N=C1SCCN1c1ccc(Cl)cc1N` [Compound 8, 3-(2-amino-4-chlorophenyl)-2-iminothiazolidine di(ethanesulfonate)], the “Therapeutical index (tetrabenazine ptosis antagonism)” value in data set [1] stood at 667. In addition, the ED50 in [1] is 1.5 mg/kg; in data set [2], 80 mg/kg; in data set [7], 22 mg/kg; in data set [8], 170 mg/kg; in data set [9] (Mus musculus, po, read-out: Inhibition of intestinal peristalsis ED50) it was 95 mg/kg; in data set [3], 14 mg/kg. For the same compound, the ED50 in [5] turned out to be 20 mg/kg; in data set [6] (setting [11]), 12 mg/kg. In addition, the “Therapeutical index (inhibition of maximum electroshock)” value in [2] amounted to 12.5. Further, the “Therapeutical index (potentiation of yohimbine toxicity)” value in [7] was found to be 45.5. For the same compound, the “Therapeutical index (analgesic effect, writhing test)” value in [8] is recorded as 5.9. For the same compound, the “Therapeutical index (inhibition of intestinal peristalsis)” value in data set [9] (LD50 and ED50 intestinal peristalsis, mice) is 10.5. In addition, the “Therapeutical index (inhibition of pentatetrazole spasm)” value in data set [3] is on record as 71.4. In addition, the LD50 at 168 h in data set [4] (oral) was determined as 1000 mg/kg. In addition, the “Therapeutical index (reserpine ptosis antagonism)” value in data set [5] is given as 50. Besides, the “Therapeutical index (inhibition of nicotine lethality)” value in data set [6] (mice) amounted to 83.3.

Take `CC1CN(c2ccc(Cl)cc2N)C(=N)S1.CCS(=O)(=O)O` (centres unmarked) [Compound 12, 3-(2-amino-4-chlorophenyl)-2-imino-5-methylthiazolidine ethanesulfonate]: in data set [1], the “Therapeutical index (tetrabenazine ptosis antagonism)” value stood at 83 and the ED50 stood at 7.2 mg/kg. Besides, in data set [2], the “Therapeutical index (inhibition of maximum electroshock)” value came to 30 and the ED50 was found to be 12 mg/kg. In data set [7], the “Therapeutical index (potentiation of yohimbine toxicity)” value was 13.3 and the ED50 is 45 mg/kg. In data set [8], the “Therapeutical index (analgesic effect, writhing test)” value amounted to 17.7 and the ED50 worked out at 34 mg/kg. In data set [3], the “Therapeutical index (inhibition of pentatetrazole spasm)” value was 40 and the ED50 came out at 15 mg/kg. Besides, in [10], the “Therapeutical index (potentiation of narcosis)” value is 14.0 and the ED50 stood at 41 mg/kg. Moreover, the “Therapeutical index (inhibition of nicotine lethality)” value in data set [6] (mice) was 100. For the same compound, the 50% effective dose (ED50) in data set [6] (setting [11]) came out at 6 mg/kg.

In data set [4] (oral), `CCCC(C)(COC(N)=O)COC(N)=O` [Meprobamate, reference compound] displayed an LD50 at 168 h of 1100 mg/kg. In data set [10], the “Therapeutical index (potentiation of narcosis)” value amounted to 4.2 and the ED50 stood at 260 mg/kg.
